Measured values taken from patent publication US9302999B2, “Substituted triazoles as herbicides” (E. I. DU PONT DE NEMOURS AND COMPANY, priority 2012, dated 2016).

Assays:
[1] = tested on: poinsettia, wild (wild poinsettia, Euphorbia heterophylla); assay: Test F pre-/postemergence: poinsettia, wild; type: in vivo
Text: (§1) Seeds of plant species selected from corn (Zea mays), soybean (Glycine max), velvetleaf (Abutilon theophrasti), lambsquarters (Chenopodium album), poinsettia, wild (wild poinsettia, Euphorbia heterophylla), pigweed, palmer (palmer pigweed, Amaranthus palmeri), waterhemp (common waterhemp, Amaranthus rudis), surinam grass (Brachiaria decumbens), crabgrass, Brazil (Brazilian crabgrass, Digitaria horizontalis), panicum, fall (fall panicum Panicum dichotomiflorum), crabgrass, large (large crabgrass, Digitaria sanguinalis), foxtail, giant (giant foxtail, Setaria faberii), foxtail, green (green foxtail Setaria viridis), goosegrass (Eleusine indica), ragweed (common ragweed, Ambrosia elatior), barnyardgrass (Echinochloa crus-galli), sandbur (southern sandbur, Cenchrus echinatus), arrowleaf sida (Sida rhombifolia), ryegrass, Italian (Italian ryegrass, Lolium multiflorum), dayflower, VA (Virginia (VA) dayflower, Commelina virginica), field bindweed (Convolvulus arvensis), cocklebur (common cocklebur, Xanthium strumarium), morningglory (Ipomoea coccinea), nightshade (eastern black nightshade, Solanum ptycanthum), kochia (Kochia scoparia), nutsedge, yellow (yellow nutsedge, Cyperus esculentus), johnsongrass (Sorghum halepense), smartweed (ladysthumb smartweed, Polygonum persicaria), and beggarticks (hairy beggarticks, Bidens pilosa), were planted into a silt loam soil and treated preemergence with test chemicals formulated in a non-phytotoxic solvent mixture which included a surfactant. At the same time, plants selected from these crop and weed species and also pigweed (Amaranthus retroflexus), waterhemp_RES1 (ALS/Triazine resistant common waterhemp, Amaranthus rudis) and waterhemp_RES2 (ALS/HPPD resistant common waterhemp, Amaranthus rudis) were planted in pots containing a planting medium comprising spaghnum peat moss, vermiculite, wetting agent and starter nutrients treated with postemergence applications of some of the test chemicals formulated in the same manner. Plants ranged in height from 2 to 18 cm for postemergence treatments (1- to 4-leaf stage).
(§2) Treated plants and controls were maintained in a greenhouse for 14 to 21 days, after which time all species were compared to controls and visually evaluated. Plant response ratings, summarized in Table E, are based on a scale of 0 to 100 where 0 is no effect and 100 is complete control. A dash (-) response means no test result.

[2] = tested on: nutsedge, yellow (yellow nutsedge, Cyperus esculentus); assay: Test F pre-/postemergence: nutsedge, yellow; type: in vivo; conditions: Preemergence
Text: as §1, §2

[3] = Preemergence, 16 g ai/ha, scale 0 to 100, 0 no effect, 100 complete control
[4] = Preemergence, 31 g ai/ha, scale 0 to 100, 0 no effect, 100 complete control
[5] = Preemergence, 125 g ai/ha, scale 0 to 100
[6] = Preemergence, 250 g ai/ha, scale 0 to 100
[7] = 16 g ai/ha, scale 0 to 100, 0 no effect, 100 complete control
[8] = 31 g ai/ha, scale 0 to 100, 0 no effect, 100 complete control

| SMILES | Plant response rating, Poinsettia, Wild [1, 3] | Plant response rating, Poinsettia, Wild [1, 4] | Plant response rating, Poinsettia, Wild [1, 5] | Plant response rating, Poinsettia, Wild [1, 6] | Plant response rating, Nutsedge, Yellow [2, 7] | Plant response rating, Nutsedge, Yellow [2, 8] | Plant response rating, Nutsedge, Yellow ([2]; 125 g ai/ha, scale 0 to 100) | Plant response rating, Nutsedge, Yellow ([2]; 250 g ai/ha, scale 0 to 100) | Plant response rating, Poinsettia, Wild ([1]; Postemergence, 8 g ai/ha, scale 0 to 100) | Plant response rating, Poinsettia, Wild ([1]; Postemergence, 16 g ai/ha, scale 0 to 100) | Plant response rating, Poinsettia, Wild ([1]; Postemergence, 31 g ai/ha, scale 0 to 100) | Plant response rating, Poinsettia, Wild ([1]; Postemergence, 62 g ai/ha, scale 0 to 100) | Plant response rating, Poinsettia, Wild ([1]; Postemergence, 125 g ai/ha, scale 0 to 100) |
| --- | --- | --- | --- | --- | --- | --- | --- | --- | --- | --- | --- | --- | --- |
| COc1nn(-c2cccc(F)c2)nc1Cc1ccnc(C(F)(F)F)c1 [Compound 139] | 0 | 20 | 75 | 80 | 0 | 0 | 0 | 0 | – | – | – | – | – |
| Cc1nn(-c2ccnc(Cl)c2)nc1Cc1ccnc(C(F)(F)F)c1 [Compound 141] | – | – | – | – | – | – | – | – | 60 | 80 | 85 | 95 | 98 |
| Cc1nn(-c2ccc(F)cc2F)nc1Oc1ccnc(C(F)(F)F)c1 [Compound 146] | 20 | 20 | 40 | 40 | 0 | 0 | 0 | 0 | – | – | – | – | – |
| CCc1nn(-c2ccc(F)cc2)nc1Cc1ccnc(C(F)(F)F)c1 [Compound 154] | 0 | 0 | 25 | 85 | 0 | 0 | 0 | 0 | – | – | – | – | – |
